Source: patent US5798387A, “Amino acid derivatives” (Zaidan Hojin Biseibutsu Kagaku Kenkyu Kai, priority 1992, dated 1998)
Where a SMILES comes first, the peptide text is derived from it. [ ]: non-standard residue; d: D form. αMeS = C[C](N)(CO)C(=O)O; hSer = N[CH](CCO)C(=O)O

Experiments:
T cells = assay: T cell proliferation (Test 1), thymidine uptake of Concanavalin A-treated T cells; format: cell-based, rat (female Fisher 344); conditions: Rattus norvegicus, 72 h, 3 days, untreated cells = 100, read-out: Rate of stimulating proliferation of T cells; for activity at 0.1 µg/mL: concentration of compound 0.1 μg/ml; for activity at 1 µg/mL: concentration of compound 1 μg/ml; for activity at 10 µg/mL: concentration of compound 10 μg/ml
Excerpt: Effects of the novel amino acid derivatives of the general formula (I) on the proliferation of T cells were investigated by the following procedure.
The spleens, which had been excised in sterility from female Fisher 344 rats (12-16 weeks old, purchased from CHARLES RIVER JAPAN, INC), were squeezed in RPMI 1640 medium (a product of NISSUI PHARMACEUTICAL CO., LTD.) supplemented with 10% of fetal bovine serum, followed by passage of the resulting cell suspension through a column containing nylon wool fibres, whereby a cell suspension containing an abundant amount of T cells was obtained. This cell suspension was diluted to a level of 1×10^6 cells/ml with addition of a medium of the same composition as above. The cell-containing medium so obtained was then added with 5 μg/ml of Concanavalin A (product of Pharmacia AB), followed by incubation at 37° C. for 4 hours. Four hours later, α-methylmannoside was added to the incubated medium to give a concentration of 20 mg/ml of α-methylmannoside. After stirring the medium, cells were separated and collected therefrom by centrifugation. The collected cells were suspended at a level of 3×10^6 cells/ml in a medium of the same composition as above, followed by placing the resulting cell suspension in 100 μl portions in a 96-well microplate.
Novel amino acid derivatives at various concentrations, which are shown in Table 4, were incorporated in an amount of 100 μl as the test compounds to the respective cell suspensions in the plate, followed by incubation at 37° C. for 3 days in an incubator under air atmosphere containing 5% of carbon dioxide. Meanwhile, eighteen hours before the completion of the incubation, a solution of 10μ Ci/ml of radioactively labeled thymidine (Thymidine "6-^3 H", a product of NEN Company) was added in an amount of 10 μl to the cell suspensions under incubation. The cells after the incubation were collected on a filter paper by means of a cell harvester, washed with water and radioactivity of the cells so treated was determined by a liquid scintillation counter. The determined values of the radioactivity of the cells as treated with the test compounds were evaluated on the assumption that the determined value of the radioactivity of the cells untreated, namely tested without addition of the test compound during the incubation of cells was amounting to 100. The so evaluated values are recorded and expressed as rates (%) for stimulating the T cell proliferation which show such extent that the proliferation of T cells is enhanced by the new amino acid derivative of this invention.

[1] = test system: bone-marrow cells (hematopoietic stem cells; megakaryocytes); assay: Formation of colonies of megakaryocytes from bone-marrow cells (Test 3); format: cell-based, mouse (male BALB/c); conditions: Mus musculus, Bone marrow cell, 168 h, 7 days, no addition = 100, read-out: Number of colonies of megakaryocytes; for activity at 5 µg/mL: concentration of test compound 5 μg/ml; for activity at 50 µg/mL: concentration of test compound 50 μg/ml
Protocol: The activity of some amino acid derivatives of the general formula (I) according to this invention which induces proliferation of hematopoietic stem cells was tested in the following manner. Thus, bone-marrow cells had been prepared from the femurs of male BALB/c mouse (6-7 weeks old), and then a suspension of the bone-marrow cells was overlayed on "Lympholite M" (product of Cefalane Company), followed by centrifugation under 1500 g for 20 minutes. A lymphocyte fraction was collected, washed three times with "alpha MEM medium" (product of Gibco Company), and then diluted and suspended in the same medium as above to give a lymphocyte concentration of 7×10^6 cells/ml.
[…] of the resulting cell suspension, 50 μl of a solution of a test compound in physiological saline, 50 μl of a culture supernatant of WEHI-3, 100 μl of phosphate-buffered physiological saline, 50 μl of a pre-deionized 10% bovine serum albumin solution, 50 μl of an L-asparagin solution (200 μg/ml), 50 μl of a calcium chloride solution (260 μg/ml) and 50 μl of bovine plasma containing sodium citrate were combined together. The liquid mixture so obtained was poured in portions of 50 μl/well on a slide glass ("Glass Ware", product of Flaw Laboratory Company). After coagulation of the mixture, the slide glass bearing the coagulated masses was immersed in 10% FBS-added alpha MEM medium, followed by incubation at 37° C. under 5% CO2 for 7 days.
After completion of the incubation, the cells on the slide glass were immobilized with a 25% glutaraldehyde solution. In accordance with the methods proposed by Nagasawa et al. ["Zoketsu Kan Saibo (Hematopoietic Stem Cells)" compiled by takahisa Shimamaro, page 128 (The Nishimura Shoten Co., Ltd.)], the immobilized cells were stained for acetylcholinesterase activity which is specific for mouse megakaryocytes, and also the cells were stained with Mayer hematoxylin. Each cell culture so stained was dried and then sealed with a sealing agent. Under a microscope of ×100 magnification, the number of megakaryocytic colonies (i.e., the number of cells stained in an orange color) per well was counted.

[2] = test system: Ehrlich ascites carcinoma; assay: Antitumor activity (Test 2), Ehrlich ascites carcinoma transplanted subcutaneously; format: in vivo, mouse (ICR); conditions: tumor weight on day 15 vs control
Protocol: The antitumor activity of some amino acid derivatives of the general formula (I) according to this invention was tested in the following manner. A suspension of Ehrlich ascites carcinoma cells was subcutaneously injected to one of the inguinal parts of each ICR mouse to transplant 4×10^6 cells/mouse. From the seventh day after the transplantation, a test compound was intraperitoneally injected daily for 7 days at a dose of 50, 5 or 0.5 mg/kg (4 mice per treated group of mice, but 8 mice per untreated control group of mice). On the fifteenth day after the transplantation, a solid cancer was cut out and weighed. A reduction in the weight of solid cancers of the mice in each treated group of mice which was evaluated in comparison with the control group is expressed as rate of inhibiting the tumor growth (%) in Table 5 below.

SMILES	activity at 0.1 µg/mL (T cells)	activity at 1 µg/mL (T cells)	activity at 10 µg/mL (T cells)	activity at 5 µg/mL [1]	activity at 50 µg/mL [1]	Tumor growth inhibiting rate ([2]; 5 mg/kg i.p. daily for 7 days)	Tumor growth inhibiting rate ([2]; 50 mg/kg i.p. daily for 7 days)	Tumor growth inhibiting rate ([2]; 0.5 mg/kg i.p. daily for 7 days)
CC(C)C(O)C(=O)NC(C)(CO)C(=O)OCc1ccccc1 (stereo not drawn) [Compound 8]	251%	226%	372%	111%	–	–	–	–
CC(C)C(O)C(=O)NC(C)(CO)C(=O)O (stereo not drawn) [Compound 7]	240%	222%	323%	–	166%	–	–	–
CC(O)CC(=O)NC(C)(CO)C(=O)O (stereo not drawn) [Compound 5]	313%	370%	439%	–	178%	–	–	–
CCC(C)CC(=O)NC(C)(CO)C(=O)OCc1ccccc1 (stereo not drawn) [Compound 2]	208%	190%	275%	122%	–	–	–	–
CC(O)C(NC(=O)C(O)C(C)C(C)O)C(=O)O (stereo not drawn) [Compound 23]	–	–	–	144%	–	–	–	–
CC(C)CC(NC(=O)C(O)C(C)C(C)O)C(=O)OCc1ccccc1 (stereo not drawn) [Compound 10]	231%	201%	251%	138%	–	31%	58%	–
CC(O)CC(=O)NC(C)(COCc1ccccc1)C(=O)OCc1ccccc1 (stereo not drawn) [Compound 6]	142%	171%	169%	126%	–	–	–	–
CC(C)CC(NC(=O)C(O)C(C)C(C)O)C(=O)O (stereo not drawn) [Compound 9]	175%	157%	196%	–	145%	–	–	–
CC(O)C(C)C(O)C(=O)NC(C)(C)C(=O)OCc1ccccc1 (stereo not drawn) [Compound 25]	–	–	–	–	156%	–	–	–
CC(O)CCC(=O)NC(C)(CO)C(=O)O (stereo not drawn) [Compound 3]	123%	100%	101%	–	–	–	–	–
CC(CO)(NC(=O)C(N)CCO)C(=O)O (stereo not drawn) [Compound 27] (H-[hSer]-[αMeS]-OH; configuration not given here)	–	–	–	–	143%	–	–	–
CC(CO)(NC(=O)C(O)C(C)(C)CO)C(=O)OCc1ccccc1 (stereo not drawn) [Compound 15]	350%	349%	442%	–	135%	–	–	–
COC(=O)C(C)(CO)NC(=O)C(O)C(C)(C)CO (stereo not drawn) [Compound 14]	356%	335%	443%	167%	–	–	–	–
CCCCOC(=O)C(C)(CO)NC(=O)CCC(C)O (stereo not drawn) [Compound 4]	133%	135%	100%	–	–	–	–	–
CCC(C)CC(=O)NC(C)(CO)C(=O)O (stereo not drawn) [Compound 1]	292%	297%	332%	147%	–	–	–	–
CC(O)C(C)C(O)C(=O)NC(C)(C)C(=O)O (stereo not drawn) [Compound 26]	–	–	–	136%	–	–	–	–
CC(NC(=O)C(O)C(C)C(C)O)C(=O)OCc1ccccc1 (stereo not drawn) [Compound 22]	–	–	–	108%	–	–	–	–
COC(=O)C(CSC)NC(=O)C(O)C(C)C(C)O (stereo not drawn) [Compound 18]	268%	355%	427%	146%	–	–	–	–
CC(C)C(O)C(C)C(O)C(=O)NC(C)(CO)C(=O)O (stereo not drawn) [Compound 16]	200%	239%	201%	–	143%	–	–	–
CSCC(NC(=O)C(O)C(C)C(C)O)C(=O)OCc1ccccc1 (stereo not drawn) [Compound 19]	289%	310%	251%	–	156%	12%	–	–
CC(NC(=O)C(O)C(C)C(C)O)C(=O)O (stereo not drawn) [Compound 24]	–	–	–	136%	–	–	–	–
CC(C)C(O)C(C)C(O)C(=O)NC(C)(CO)C(=O)OCc1ccccc1 (stereo not drawn) [Compound 17]	201%	273%	245%	107%	–	–	–	–
CC(CC(=O)O)NC(=O)C(O)C(C)C(C)O (stereo not drawn) [Compound 29]	–	–	–	–	121%	–	–	–
CC(CO)(NC(=O)C(O)C(C)(C)CO)C(=O)O (stereo not drawn) [Compound 13]	405%	352%	465%	177%	–	–	–	–
CC(O)C(C)C(O)C(=O)NC(CO)C(=O)OCc1ccccc1 (stereo not drawn) [Compound 12]	265%	185%	242%	105%	–	–	–	37%
CC(O)C(C)C(O)C(=O)NC(CSCc1ccccc1)C(=O)OCc1ccccc1 (stereo not drawn) [Compound 20]	153%	227%	261%	129%	–	–	–	–
CC(CC(=O)OCc1ccccc1)NC(=O)C(O)C(C)C(C)O (stereo not drawn) [Compound 28]	–	–	–	121%	–	–	–	–
CC(O)C(C)C(O)C(=O)NC(CO)C(=O)O (stereo not drawn) [Compound 11]	394%	392%	100%	150%	–	–	–	–
